Results as given in patent US20020160968A1, “Inhibitors of cellular niacinamide mononucleotide formation and their use in cancer therapy” (Klinge Pharma GmbH, priority 1999, published 2002).

Test system: NAD(P) synthesis from niacinamide in HepG2 cells
Test: Determination of NAD(P) synthesis from [14C]niacinamide in HepG2 cells
Type: cell-based, human
Conditions: for inhibition at 10 µM / activity at 10 µM: Homo sapiens; for inhibition at 10 µM: read-out: Cellular NAD synthesis inhibition [%]; for activity at 10 µM / NAD(P) pmol/10^6 cells / NAD(P) pmol/mg protein: Table 3a, compound 10^-5 M; for activity at 10 µM: read-out: NAD(P) % of Control; for NAD(P) pmol/10^6 cells: 17 hrs pre-incubation, control 302.1; for NAD(P) pmol/mg protein: control 186.4
From the text: The effect of the compounds on the synthesis of NAD(P) starting from niacinamide was investigated using for example the tumor cell line HepG2 according to the technique described in the experimental part below.
The inhibition of the NAD(P) synthesis from niacinamide by these compounds was investigated in HepG2 cells as described in the section “Material and Methods”. The compounds of Table 3 a were used at a concentration of 10^−5 M. The compounds of Table 3 b were used at concentrations of at least 10^−5 M, except for Doxorubicin where the concentration was 0.3×10^−5 M. As a control, vehicle treated or untreated cells were used.
In these experiments, a pre-incubation period of 17 hrs with the compounds was used, but it turned out that the pre-incubations period could be shortened, for example to 2 hrs, or skipped completely without affecting the inhibition profile. […] Similar results were obtained with the other specific compounds.
For the detection of specific inhibitors of niacinamide mononucleotide formation the following screening assay is especially useful which comprises the following steps: incubating cultured cells selected from HepG2 cells, U-87 MG cells, MCF-7 M1 cells, Caki-1 cells, HL-60 cells, PC3 cells, U-373 MG cells, A549 cells and KG-1a cells in the presence of [^14C]niacinamide and a compound to be tested for its activity to inhibit the cellular formation of niacinamide mononucleotide; effecting lysis of the cells; isolating and separating the [^14C]-labeled compounds and measuring the amount of formed labeled niacinamide mononucleotide, NAD and NADP. More concretely, cultured cells are seeded in a defined density in culture dishes, followed by incubation in the presence of a test compound and by the addition of [^14C]niacinamide for about 0.1 to 6 hrs. The cells are then lysed with perchloric acid and the resulting extract is neutralized. Finally, the [^14C]-labeled compounds are separated by thin-layer chromatography on cellulose matrices followed by UV detection and autoradiography. Non-radioactive niacinamide derivatives are used as standards. This assay allows simple and effective screening and selection of the compounds according to the invention.
Determination of NAD(P) Synthesis from [^14C]Niacinamide
The cells were detached from 75 cm^2 flasks by removing the growth medium and adding 3 ml trypsin/EDTA solution to each flask. After about 5 minutes incubation at 37° C., when the cells were detached from the surface of the dishes, trypsinization was stopped by adding 3 ml Richter's IMEM-ZO medium containing 10% FCS. The cells were suspended by repeated pipetting. For predilution, an aliquot of 20 μl was added to 10 ml Casyton isotonic solution (No. 043-90037P, Schärfe System, Reutlingen, Germany) using a Sysmex Auto Dilutor Type AD-260 (Toa, Medical Electronics Co. Ltd., Kobe, Japan). The cell number was determined by electronic cell volume measurements and counting with a CASY 1 Cell Counter+Analyzer System, Model TTC (Schärfe System, Reutlingen, Germany) equipped with a 60 μm capillary. Following dilution in IMEM-ZO containing 10% FCS, the cells were finally seeded at a density of 4×10^6/10 ml per sample in Ø 10 cm tissue culture dishes (Greiner, Frickenhausen, Germany) and incubated at 37° C. in a humidified atmosphere of 5% CO2 in air.
After one day, when the cells were adherent to the dishes, the cultures were replenished with IMEM-ZO containing 5% FCS plus the test compound or the vehicle. […] The cells were then incubated at 37° C. for 17 hours in a humidified atmosphere of 5% CO2 in air. This preincubation period is not necessary to achieve a distinct inhibitory action of the compounds and can be shortened for example to 2 or 0 hours. After this period of time, the medium was again discarded and 4 ml HEPES-buffered IMEM-ZO containing the test compound or the vehicle and 0.5 μCi/ml [^14C]niacinamide were added to each culture for an additional 5 hours at 37° C. and 100% humidity. […]

Row | SMILES | inhibition at 10 µM [%] | activity at 10 µM [%] | NAD(P) pmol/10^6 cells [pmol/10^6 cells] | NAD(P) pmol/mg protein [pmol/mg protein]
1 | Cn1c(CCNC(=O)/C=C/c2cccnc2)ccc1CN1CCN(C(c2ccccc2)c2ccccc2)CC1 [Compound K22350, N-{2-[5-(4-benzhydryl-piperazine-1-yl-methyl)-1-methyl-1H-pyrrole-2-yl]-ethyl}-3-pyridine-3-yl-acrylamide] | 99 | 0.9 | 2.7 | 1.7
2 | O=C(NCCCCC1CCN(S(=O)(=O)c2ccc3ccccc3c2)CC1)Nc1cccnc1 [Compound K22365, 1-{4-[1-(naphthalene-2-sulfonyl)-piperidine-4-yl)-butyl}-3-pyridine-3-yl-urea] | 92 | – | – | –
3 | O=C(NCCCCC1CCN(C(=O)N2c3ccccc3CCc3ccccc32)CC1)Nc1cccnc1 [Compound K22387, 1-{4-[1-(1,11-dihydro-dibenzene[b,f]azepine-5-carbonyl)-piperidine-4-yl]-butyl}-3-pyridine-3-yl-urea] | 99 | 0.9 | 2.6 | 1.6
4 | NC(Cc1ccc(O)c(N=Nc2ccccc2C(=O)N2CCC(CCCCNC(=O)/C=C/c3cccnc3)CC2)c1)C(=O)O (stereo not shown) [Compound K22408, 2-amino-3-[4-hydroxy-3-(2-{4-[4-(3-pyridine-3-yl-acryloyl-amino)-butyl]-piperidine-1-carbonyl}-phenylazo)-phenyl]-propanoic acid trihydrate] | 98 | 1.6 | 4.9 | 3.0
